Assay results reported in US10696655B2, “Therapeutic compounds and uses thereof” (GENENTECH, INC., priority 2017, dated 2020).
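Also: displacement of a biotinylated small-molecule ligand from purified recombinant CBP read by TR-FRET, DMSO-only wells as control, IC50 from nonlinear curve fit.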

Each compound was assayed against CBP (Homo sapiens (Human), UniProt Q92793) (assay: CBP TR-FRET binding assay). Details: His/Flag tagged CBP 4 nM, biotin-ligand 60 nM; read-out: CBP HTRF IC50.
Chain of CBP (Q92793 whole entry): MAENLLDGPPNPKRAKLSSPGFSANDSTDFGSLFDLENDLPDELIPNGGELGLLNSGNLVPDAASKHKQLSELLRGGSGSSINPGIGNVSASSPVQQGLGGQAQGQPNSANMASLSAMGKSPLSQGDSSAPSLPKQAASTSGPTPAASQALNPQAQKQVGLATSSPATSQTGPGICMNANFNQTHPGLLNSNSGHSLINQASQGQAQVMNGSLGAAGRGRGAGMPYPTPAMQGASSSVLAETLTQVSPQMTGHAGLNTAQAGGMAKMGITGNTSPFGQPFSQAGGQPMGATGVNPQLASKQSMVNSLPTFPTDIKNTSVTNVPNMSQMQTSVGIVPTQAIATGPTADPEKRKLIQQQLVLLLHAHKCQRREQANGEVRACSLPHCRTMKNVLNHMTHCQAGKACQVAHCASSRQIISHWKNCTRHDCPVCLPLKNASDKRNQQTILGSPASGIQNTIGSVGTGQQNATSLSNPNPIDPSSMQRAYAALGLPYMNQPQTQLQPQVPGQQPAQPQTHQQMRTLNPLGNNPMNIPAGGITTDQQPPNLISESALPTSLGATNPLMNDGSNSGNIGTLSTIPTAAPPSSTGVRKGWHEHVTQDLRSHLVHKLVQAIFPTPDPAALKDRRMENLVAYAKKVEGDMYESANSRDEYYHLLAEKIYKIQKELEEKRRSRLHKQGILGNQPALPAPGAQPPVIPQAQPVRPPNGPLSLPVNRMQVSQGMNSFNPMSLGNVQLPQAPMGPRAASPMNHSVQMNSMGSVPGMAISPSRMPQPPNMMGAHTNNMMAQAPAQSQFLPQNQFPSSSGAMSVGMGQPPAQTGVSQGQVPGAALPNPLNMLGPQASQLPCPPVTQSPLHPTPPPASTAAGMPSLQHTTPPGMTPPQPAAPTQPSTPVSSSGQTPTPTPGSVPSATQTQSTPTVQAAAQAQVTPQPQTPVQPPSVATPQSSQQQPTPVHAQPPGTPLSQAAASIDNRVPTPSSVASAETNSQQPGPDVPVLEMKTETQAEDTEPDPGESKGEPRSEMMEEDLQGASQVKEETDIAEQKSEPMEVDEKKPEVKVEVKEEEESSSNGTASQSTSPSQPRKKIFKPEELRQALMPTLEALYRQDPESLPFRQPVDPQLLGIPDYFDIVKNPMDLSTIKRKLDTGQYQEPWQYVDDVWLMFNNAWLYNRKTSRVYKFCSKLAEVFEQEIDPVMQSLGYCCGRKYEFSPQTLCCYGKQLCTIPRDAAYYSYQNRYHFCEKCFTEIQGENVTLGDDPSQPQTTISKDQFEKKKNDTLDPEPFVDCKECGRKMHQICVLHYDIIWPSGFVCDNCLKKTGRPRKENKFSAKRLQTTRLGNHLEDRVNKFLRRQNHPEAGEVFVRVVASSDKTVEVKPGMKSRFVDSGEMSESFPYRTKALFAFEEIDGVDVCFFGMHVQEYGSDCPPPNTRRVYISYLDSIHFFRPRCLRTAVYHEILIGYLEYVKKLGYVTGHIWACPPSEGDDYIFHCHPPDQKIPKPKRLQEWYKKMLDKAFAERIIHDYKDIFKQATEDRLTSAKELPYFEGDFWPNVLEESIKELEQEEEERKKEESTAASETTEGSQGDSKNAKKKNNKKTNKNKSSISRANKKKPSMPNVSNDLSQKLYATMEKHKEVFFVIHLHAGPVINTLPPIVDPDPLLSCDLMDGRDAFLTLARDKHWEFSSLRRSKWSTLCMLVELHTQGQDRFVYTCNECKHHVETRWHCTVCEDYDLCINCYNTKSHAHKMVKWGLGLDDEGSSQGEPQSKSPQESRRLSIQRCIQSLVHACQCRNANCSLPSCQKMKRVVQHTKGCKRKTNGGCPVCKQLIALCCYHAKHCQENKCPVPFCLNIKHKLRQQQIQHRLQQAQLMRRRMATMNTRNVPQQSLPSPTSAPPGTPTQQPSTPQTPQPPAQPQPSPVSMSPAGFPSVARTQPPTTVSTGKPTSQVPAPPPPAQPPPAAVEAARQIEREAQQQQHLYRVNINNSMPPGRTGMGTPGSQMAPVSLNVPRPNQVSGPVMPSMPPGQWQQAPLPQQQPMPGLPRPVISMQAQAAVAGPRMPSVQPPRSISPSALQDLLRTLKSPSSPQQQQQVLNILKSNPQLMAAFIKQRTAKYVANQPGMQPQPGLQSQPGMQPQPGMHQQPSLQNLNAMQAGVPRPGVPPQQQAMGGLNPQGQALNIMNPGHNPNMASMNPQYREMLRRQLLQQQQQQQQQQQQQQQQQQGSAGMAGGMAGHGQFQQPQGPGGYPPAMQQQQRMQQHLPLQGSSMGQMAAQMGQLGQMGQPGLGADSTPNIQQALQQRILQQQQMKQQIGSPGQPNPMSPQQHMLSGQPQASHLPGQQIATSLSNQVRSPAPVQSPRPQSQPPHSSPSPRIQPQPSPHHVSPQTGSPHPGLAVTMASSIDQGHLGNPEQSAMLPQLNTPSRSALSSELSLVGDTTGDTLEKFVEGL
Experimental: IC50 Measurements for Inhibitors Using CBP TR FRET Binding Assay
His/Flag epitope tagged CBP was cloned, expressed, and purified to homogeneity. CBP binding and inhibition was assessed by monitoring the engagement of a biotinylated small molecule compound with the target using the TR-FRET assay technology (Perkin-Elmer). Specifically, in a 384 well ProxiPlate CBP (4 nM final) was combined with biotin-ligand (60 nM final) in 50 mM HEPES (pH 7.5), 50 mM NaCl, 1 mM TCEP, 0.01% (w/v) BSA, and 0.008% (w/v) Brij-35 either in the presence of DMSO (final 0.2% DMSO) or compound dilution series in DMSO. […] After twenty minutes of equilibration, the plates were read on an Envision instrument and IC50S calculated using a four parameter non-linear curve fit.
For C[C@H]1Oc2c(cccc2N2CCCc3cc(-c4cnn(C)c4)c(C(F)F)cc32)NC1=O [Example 115, (R)-8-(7-(difluoromethyl)-6-(1-methyl-1H-pyrazol-4-yl)-3,4-dihydroquinolin-1(2H)-yl)-2-methyl-2H-benzo[b][1,4]oxazin-3(4H)-one], the IC50 was 77 nM.
Work on CCn1c(=O)n(C)c2cc(N3CCCc4cc(-c5cnn(C)c5)c(C(F)F)cc43)ccc21 [Example 31, 5-[7-(difluoromethyl)-6-(1-methylpyrazol-4-yl)-3,4-dihydro-2H-quinolin-1-yl]-1-ethyl-3-methyl-benzimidazol-2-one] yielded an IC50 of 172 nM.
CNC(=O)c1cnn2ccc(N3CCCc4cc(-c5cnn(C)c5)c(C(F)F)cc43)cc12 [Example 30] showed an IC50 of 543 nM.
In the case of Cn1cc(-c2cc3c(cc2C(F)F)N(c2ccc4oc(=O)n(C)c4c2)CCC3)cn1 [Example 91, 5-[7-(difluoromethyl)-6-(1-methylpyrazol-4-yl)-3,4-dihydro-2H-quinolin-1-yl]-3-methyl-1,3-benzoxazol-2-one], the IC50 is reported as 481 nM.
In the case of CNC(=O)N1Cc2cc(N3CCCc4cc(-c5cnn(C)c5)c(C(F)F)cc43)ccc2OC(C)C1 (stereo not drawn) [Example 114, 7-(7-(difluoromethyl)-6-(1-methyl-1H-pyrazol-4-yl)-3,4-dihydroquinolin-1(2H)-yl)-N,2-dimethyl-2,3-dihydrobenzo[f][1,4]oxazepine-4(5H)-carboxamide], the IC50 is reported as 51 nM.
Cn1cc(-c2cc3c(cc2C(F)F)N(c2cc(N4CCCCC4)c4c(c2)n(C)c(=O)n4C)CCC3)cn1 [Example 44] was tested, and the IC50 was 26 nM.
Cn1cc(-c2cc3c(cc2C(F)F)N(c2cnc4[nH]cc(-c5cnn(C)c5)c4n2)CCC3)cn1 [Example 74, 7-(difluoromethyl)-6-(1-methyl-1H-pyrazol-4-yl)-1-(7-(1-methyl-1H-pyrazol-4-yl)-5H-pyrrolo[2,3-b]pyrazin-2-yl)-1,2,3,4-tetrahydroquinoline] gave an IC50 of 108 nM.
With CN1Cc2c(cccc2N2CCCc3cc(-c4cnn(C)c4)c(C(F)F)cc32)NC1=O [Example 116, 5-(7-(difluoromethyl)-6-(1-methyl-1H-pyrazol-4-yl)-3,4-dihydroquinolin-1(2H)-yl)-3-methyl-3,4-dihydroquinazolin-2(1H)-one] the IC50 was 26 nM.
For CNc1cc(N2CCCc3cc(-c4cnn(C)c4)c(C(F)F)cc32)cc2c1n(C)c(=O)n2C [Example 42], the IC50 was 19 nM.
CNC(=O)N1CCOc2ccc(-c3cccc4c3cnn4C)cc2C1 [Example 10] gave an IC50 of 96 nM.
CNC(=O)N1CCOc2ccc(-c3cccc(-c4cnn(C)c4)c3C(F)F)cc2C1 [Example 77, 7-(2-(difluoromethyl)-3-(1-methyl-1H-pyrazol-4-yl)phenyl)-N-methyl-2,3-dihydrobenzo[f][1,4]oxazepine-4(5H)-carboxamide] showed an IC50 of 187 nM.
In the case of CNC(=O)c1coc2ccc(N3CCCc4cc(-c5cnn(C)c5)c(C(F)F)cc43)cc12 [Example 73, 5-(7-(difluoromethyl)-6-(1-methyl-1H-pyrazol-4-yl)-3,4-dihydroquinolin-1(2H)-yl)-N-methylbenzofuran-3-carboxamide], the IC50 is reported as 80 nM.
CNC(=O)N1CCOc2c(cc(-c3ccccc3C)cc2C(C)C)C1 [Example 110, 9-isopropyl-N-methyl-7-(o-tolyl)-2,3-dihydrobenzo[f][1,4]oxazepine-4(5H)-carboxamide] gave an IC50 of 201 nM.
For CC(=O)N1CCc2c(cc(-c3cccc4cc(-c5cnn(C)c5)ncc34)c(=O)n2C)C1 [Example 88, 6-acetyl-1-methyl-3-[3-(1-methylpyrazol-4-yl)-8-isoquinolyl]-7,8-dihydro-5H-1,6-naphthyridin-2-one], the IC50 was 258 nM.
Compound CNC(=O)c1ccc2c(c1)n(-c1cccc3cc(-c4cnn(C)c4)ncc13)c(=O)n2C [Example 103, N,1-dimethyl-3-(3-(1-methyl-1H-pyrazol-4-yl)isoquinolin-8-yl)-2-oxo-2,3-dihydro-1H-benzo[d]imidazole-5-carboxamide] has an IC50 of 222 nM.
For CCn1c(=O)n(C)c2ccc(N3CCCc4cc(-c5cnn(C)c5)c(C(F)F)cc43)cc21 [Example 32], the IC50 was 48 nM.
In the case of CNC(=O)N1CCOc2ccc(-c3c(C)ccc4c3cnn4C)cc2C1 [Example 3, 7-(1,5-dimethylindazol-4-yl)-N-methyl-3,5-dihydro-2H-1,4-benzoxazepine-4-carboxamide], the IC50 is reported as 57 nM.
CNC(=O)Nc1cccc(N2CCCc3cc(-c4cnn(C)c4)c(C(F)F)cc32)n1 [Example 122, 1-(6-(7-(difluoromethyl)-6-(1-methyl-1H-pyrazol-4-yl)-3,4-dihydroquinolin-1(2H)-yl)pyridin-2-yl)-3-methylurea] showed an IC50 of 88 nM.
In the case of CNC(=O)c1cccc2oc(-c3cccc4cc(-c5cnn(C)c5)ncc34)nc12 [Example 121, N-methyl-2-(3-(1-methyl-1H-pyrazol-4-yl)isoquinolin-8-yl)benzo[d]oxazole-4-carboxamide], the IC50 is reported as 274 nM.
Compound Cn1cc(-c2cc3cccc(-c4ccc5c(c4)n(C)c(=O)n5C)c3cn2)cn1 [Example 94, 1,3-dimethyl-5-(3-(1-methyl-1H-pyrazol-4-yl)isoquinolin-8-yl)-1H-benzo[d]imidazol-2(3H)-one] has an IC50 of 90 nM.
In the case of CNC(=O)c1c[nH]c2cnc(N3CCCc4cc(-c5cnn(C)c5)c(C(F)F)cc43)nc12 [Example 70], the IC50 is reported as 18 nM.
With CNC(=O)c1ccc2c(n1)c(N1CCCc3cc(-c4cnn(C)c4)c(C(F)F)cc31)nn2C1CCOCC1 [Example 125, 3-(7-(difluoromethyl)-6-(1-methyl-1H-pyrazol-4-yl)-3,4-dihydroquinolin-1(2H)-yl)-N-methyl-1-(tetrahydro-2H-pyran-4-yl)-1H-pyrazolo[4,3-b]pyridine-5-carboxamide] the IC50 was 2 nM.
Compound CC1C(=O)N(C)c2cc(N3CCCc4cc(-c5cnn(C)c5)c(C(F)F)cc43)ccc21 (stereo in doubt) [Example 92, (R)-6-[7-(difluoromethyl)-6-(1-methylpyrazol-4-yl)-3,4-dihydro-2H-quinolin-1-yl]-1,3-dimethyl-indolin-2-one] has an IC50 of 42 nM.
Compound CNC(=O)N1CCOc2ccc(-c3cccc4nc(-c5ccc(OC)cc5)cn34)cc2C1 [Example 86, 7-[2-(4-methoxyphenyl)imidazo[1,2-a]pyridin-5-yl]-N-methyl-3,5-dihydro-2H-1,4-benzoxazepine-4-carboxamide] has an IC50 of 81 nM.
Compound CNC(=O)N1CCOc2ccc(-c3c(C)ccc4[nH]ncc34)cc2C1 [Example 9] has an IC50 of 78 nM.
CNC(=O)N1CCN(C)c2ccc(-c3ccccc3C)cc2C1 [Example 85, N,1-dimethyl-7-(o-tolyl)-3,5-dihydro-2H-1,4-benzodiazepine-4-carboxamide] gave an IC50 of 450 nM.
For CNC(=O)c1ccc2nccc(N3CCCc4cc(-c5cnn(C)c5)c(C(F)F)cc43)c2c1 [Example 27, 4-[7-(difluoromethyl)-6-(1-methylpyrazol-4-yl)-3,4-dihydro-2H-quinolin-1-yl]-N-methyl-quinoline-6-carboxamide], the IC50 was 34 nM.
CNC(=O)N1CCOc2ccc(-c3cccc4[nH]ncc34)cc2C1 [Example 14] was tested, and the IC50 was 102 nM.
CNC(=O)N1CCOc2ccc(-c3cccc4nn(C)cc34)cc2C1 [Example 5] gave an IC50 of 296 nM.
CNC(=O)N1CCOc2ccc(-c3c(F)ccc4[nH]ccc34)cc2C1 [Example 12] gave an IC50 of 59 nM.
With Cn1cc(-c2ccc3c(c2)CCCN3c2cnc3[nH]cc(-c4cnn(C)c4)c3n2)cn1 [Example 75, 6-(1-methyl-1H-pyrazol-4-yl)-1-(7-(1-methyl-1H-pyrazol-4-yl)-5H-pyrrolo[2,3-b]pyrazin-2-yl)-1,2,3,4-tetrahydroquinoline] the IC50 was 244 nM.
CNC(=O)N1CCOc2ccc(-c3cncc4ccccc34)cc2C1 [Example 11] gave an IC50 of 281 nM.
With CC1C(=O)N(C)c2cc(N3CCCc4cc(-c5cnn(C)c5)c(C(F)F)cc43)ccc21 (stereo in doubt) [Example 93, (S)-6-[7-(difluoromethyl)-6-(1-methylpyrazol-4-yl)-3,4-dihydro-2H-quinolin-1-yl]-1,3-dimethyl-indolin-2-one] the IC50 was 95 nM.
Work on Cn1cc(-c2cc3c(cc2C(F)F)N(c2ccc4c(n2)n(C)c(=O)n4C)CCC3)cn1 [Example 26] yielded an IC50 of 2280 nM.
CCCc1cc(N2CCCc3cc(-c4cnn(C)c4)c(C(F)F)cc32)cc2c1n(C)c(=O)n2C [Example 99, 6-(7-(difluoromethyl)-6-(1-methyl-1H-pyrazol-4-yl)-3,4-dihydroquinolin-1(2H)-yl)-1,3-dimethyl-4-propyl-1H-benzo[d]imidazol-2(3H)-one] was tested, and the IC50 was 19 nM.
With CNC(=O)c1n[nH]c2ccc(N3CCCc4cc(-c5cnn(C)c5)c(C(F)F)cc43)nc12 [Example 71] the IC50 was 187 nM.
In the case of CNC(=O)N1CCOc2ccc(-c3ccnc4ccccc34)cc2C1 [Example 4], the IC50 is reported as 193 nM.
CNC(=O)[C@H]1CCc2ccc(N3CCCc4cc(-c5cnn(C)c5)c(C(F)F)cc43)nc21 [Example 117, (S)-2-(7-(difluoromethyl)-6-(1-methyl-1H-pyrazol-4-yl)-3,4-dihydroquinolin-1(2H)-yl)-N-methyl-6,7-dihydro-5H-cyclopenta[b]pyridine-7-carboxamide] was tested, and the IC50 was 40 nM.
In the case of CNC(=O)c1cnc2ccc(N3CCCc4cc(-c5cnn(C)c5)c(C(F)F)cc43)nn12 [Example 72, 6-(7-(difluoromethyl)-6-(1-methyl-1H-pyrazol-4-yl)-3,4-dihydroquinolin-1(2H)-yl)-N-methylimidazo[1,2-b]pyridazine-3-carboxamide], the IC50 is reported as 110 nM.
For CN1CCN(c2ccc3c(c2)n(C)c(=O)n3C)c2cc(C(F)(F)F)c(-c3cnn(C)c3)cc21 [Example 95, 1,3-dimethyl-5-(4-methyl-6-(1-methyl-1H-pyrazol-4-yl)-7-(trifluoromethyl)-3,4-dihydroquinoxalin-1(2H)-yl)-1H-benzo[d]imidazol-2(3H)-one], the IC50 was 30 nM.
COC(=O)c1ccc2nccc(N3CCCc4cc(-c5cnn(C)c5)ccc43)c2c1 [Example 28] was tested, and the IC50 was 199 nM.
Compound CNC(=O)N1CCOc2ccc(-c3cccc4ncccc34)cc2C1 [Example 6] has an IC50 of 362 nM.
With CNC(=O)N1CCOc2ccc(-c3ccc4[nH]ccc4c3)cc2C1 [Example 13] the IC50 was 267 nM.
For Cn1cc(-c2cc3c(cc2C(F)F)N(c2cc4c(cn2)n(C)c(=O)n4C)CCC3)cn1 [Example 24], the IC50 was 106 nM.
In the case of CCn1cc(C(=O)NC)c2cc(N3CCCc4cc(-c5cnn(C)c5)c(C(F)F)cc43)ccc21 [Example 51], the IC50 is reported as 27 nM.
